Like-named read-outs stand apart in the source and are kept apart here.
Tests used:
Format in all cases: biochemical
Lck = molecular target: T1, Lck (Homo sapiens, UniProt P06239); test: Kinase inhibition assay (33P transfer), Lck; conditions: read-out: Lck-1
T1 construct: Kinases are expressed as either kinase domains or full length constructs; made in house
In short: (§1)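 Radiometric readout: 33P incorporated into surface-bound poly(Glu,Tyr) 4:1 or poly(Arg,Ser) 3:1 is counted by liquid scintillation after a 0.5% phosphoric acid wash. Enzymes were GST or polyHis fusions (kinase domain or full length) from E. coli or High Five insect cells.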

AKT = molecular target: T2, AKT (Homo sapiens, UniProt Q9Y243); test: Kinase inhibition assay (33P transfer), AKT; conditions: Table 2, kinase inhibition class; read-out: AKT3-1
T2 construct: Kinases are expressed as either kinase domains or full length constructs; made in house
In short: as §1

PDGFRB = molecular target: T3, PDGFRB (Homo sapiens, UniProt P09619); test: Kinase inhibition assay (33P transfer), PDGFRB; conditions: read-out: PDGFRB-1
T3 construct: Kinases are expressed as either kinase domains or full length constructs; made in house

IGFR-1 [1] = molecular target: T4, IGFR-1 (Homo sapiens, UniProt P08069); test: Kinase inhibition assay (33P transfer), IGFR-1; conditions: Table 2, kinase inhibition class
T4 construct: Kinases are expressed as either kinase domains or full length constructs; made in house

c-Met = molecular target: T5, c-Met (Homo sapiens, UniProt P08581); test: Kinase inhibition assay (33P transfer), c-Met; conditions: Table 2, kinase inhibition class; read-out: Met-1
T5 construct: Kinases are expressed as either kinase domains or full length constructs; made in house
In short: (§2)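 Radiometric format: recombinant tagged kinase (catalytic domain or whole protein, sometimes combined with regulatory polypeptides) phosphorylates immobilised poly(Glu,Tyr) 4:1 or poly(Arg,Ser) 3:1 using [33P]ATP. Wells are washed in 0.5% phosphoric acid, then counted. IC50 is taken where substrate labelling falls by half.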

Zap-70 = molecular target: T6, Zap-70 (Homo sapiens, UniProt P43403); test: Kinase inhibition assay (33P transfer), Zap-70; conditions: read-out: Zap-1
T6 construct: Kinases are expressed as either kinase domains or full length constructs; made in house
T6 sequence (P43403 1-619): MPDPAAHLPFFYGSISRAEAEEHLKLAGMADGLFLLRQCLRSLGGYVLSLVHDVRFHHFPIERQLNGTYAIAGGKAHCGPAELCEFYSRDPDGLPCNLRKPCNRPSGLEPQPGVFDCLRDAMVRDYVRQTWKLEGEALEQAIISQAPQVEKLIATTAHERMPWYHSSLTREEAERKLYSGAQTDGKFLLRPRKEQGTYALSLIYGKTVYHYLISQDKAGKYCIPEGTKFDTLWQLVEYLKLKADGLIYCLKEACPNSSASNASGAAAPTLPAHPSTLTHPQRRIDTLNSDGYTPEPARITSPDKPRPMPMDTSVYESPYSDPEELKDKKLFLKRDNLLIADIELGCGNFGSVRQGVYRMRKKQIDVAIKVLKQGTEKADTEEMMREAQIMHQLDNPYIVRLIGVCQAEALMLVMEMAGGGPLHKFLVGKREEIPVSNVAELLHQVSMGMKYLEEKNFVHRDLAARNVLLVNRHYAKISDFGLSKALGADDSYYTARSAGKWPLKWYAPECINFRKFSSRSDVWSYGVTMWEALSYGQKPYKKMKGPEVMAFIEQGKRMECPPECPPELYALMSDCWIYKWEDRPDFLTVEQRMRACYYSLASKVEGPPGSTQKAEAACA
In short: as §1

EGFR = molecular target: T7, EGFR (Homo sapiens, UniProt P00533); test: Kinase inhibition assay (33P transfer), EGFR; conditions: Table 2, kinase inhibition class; read-out: EGFR-1
T7 construct: Kinases are expressed as either kinase domains or full length constructs; made in house
In short: as §2

Tek = molecular target: T8, Tek (Homo sapiens, UniProt Q02763); test: Kinase inhibition assay (33P transfer), Tek; conditions: read-out: Tek-1
T8 construct: Kinases are expressed as either kinase domains or full length constructs; made in house
In short: as §2

Kdr = molecular target: T9, Kdr (Homo sapiens, UniProt P35968); test: Kinase inhibition assay (33P transfer), Kdr; conditions: read-out: KDR-1
T9 construct: Kinases are expressed as either kinase domains or full length constructs; made in house
In short: as §1

Itk = molecular target: T10, Itk (Homo sapiens, UniProt Q08881); test: Kinase inhibition assay (33P transfer), Itk; conditions: read-out: Itk-1
T10 construct: Kinases are expressed as either kinase domains or full length constructs; made in house
T10 sequence (Q08881 1-620): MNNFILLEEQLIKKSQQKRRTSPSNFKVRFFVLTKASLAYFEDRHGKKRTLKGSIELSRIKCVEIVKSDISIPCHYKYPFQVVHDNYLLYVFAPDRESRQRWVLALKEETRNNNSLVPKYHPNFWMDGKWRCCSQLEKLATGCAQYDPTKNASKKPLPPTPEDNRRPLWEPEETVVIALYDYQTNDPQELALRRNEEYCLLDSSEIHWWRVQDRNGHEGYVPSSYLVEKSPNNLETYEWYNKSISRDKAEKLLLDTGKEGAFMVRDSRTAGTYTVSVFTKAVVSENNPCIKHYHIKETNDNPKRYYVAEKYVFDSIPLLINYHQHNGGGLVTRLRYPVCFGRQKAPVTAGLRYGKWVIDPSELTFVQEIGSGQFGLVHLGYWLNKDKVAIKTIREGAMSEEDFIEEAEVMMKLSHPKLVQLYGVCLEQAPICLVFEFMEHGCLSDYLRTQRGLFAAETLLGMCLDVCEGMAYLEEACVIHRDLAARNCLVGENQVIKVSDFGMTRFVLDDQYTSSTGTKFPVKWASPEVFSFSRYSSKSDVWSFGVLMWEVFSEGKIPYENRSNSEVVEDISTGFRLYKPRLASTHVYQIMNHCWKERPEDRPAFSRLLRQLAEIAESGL
In short: as §2

ErbB2 = molecular target: T11, ErbB2 (Homo sapiens, UniProt P04626); test: Kinase inhibition assay (33P transfer), ErbB2; conditions: read-out: ErbB2-2
T11 construct: Kinases are expressed as either kinase domains or full length constructs; made in house
In short: as §2

IGFR-1 [2] = molecular target: T4, IGFR-1; test: Kinase inhibition assay, IGFR-1 (Table 2); conditions: Table 2, kinase inhibition class

T3 sequence (P09619 33-1106, species assumed): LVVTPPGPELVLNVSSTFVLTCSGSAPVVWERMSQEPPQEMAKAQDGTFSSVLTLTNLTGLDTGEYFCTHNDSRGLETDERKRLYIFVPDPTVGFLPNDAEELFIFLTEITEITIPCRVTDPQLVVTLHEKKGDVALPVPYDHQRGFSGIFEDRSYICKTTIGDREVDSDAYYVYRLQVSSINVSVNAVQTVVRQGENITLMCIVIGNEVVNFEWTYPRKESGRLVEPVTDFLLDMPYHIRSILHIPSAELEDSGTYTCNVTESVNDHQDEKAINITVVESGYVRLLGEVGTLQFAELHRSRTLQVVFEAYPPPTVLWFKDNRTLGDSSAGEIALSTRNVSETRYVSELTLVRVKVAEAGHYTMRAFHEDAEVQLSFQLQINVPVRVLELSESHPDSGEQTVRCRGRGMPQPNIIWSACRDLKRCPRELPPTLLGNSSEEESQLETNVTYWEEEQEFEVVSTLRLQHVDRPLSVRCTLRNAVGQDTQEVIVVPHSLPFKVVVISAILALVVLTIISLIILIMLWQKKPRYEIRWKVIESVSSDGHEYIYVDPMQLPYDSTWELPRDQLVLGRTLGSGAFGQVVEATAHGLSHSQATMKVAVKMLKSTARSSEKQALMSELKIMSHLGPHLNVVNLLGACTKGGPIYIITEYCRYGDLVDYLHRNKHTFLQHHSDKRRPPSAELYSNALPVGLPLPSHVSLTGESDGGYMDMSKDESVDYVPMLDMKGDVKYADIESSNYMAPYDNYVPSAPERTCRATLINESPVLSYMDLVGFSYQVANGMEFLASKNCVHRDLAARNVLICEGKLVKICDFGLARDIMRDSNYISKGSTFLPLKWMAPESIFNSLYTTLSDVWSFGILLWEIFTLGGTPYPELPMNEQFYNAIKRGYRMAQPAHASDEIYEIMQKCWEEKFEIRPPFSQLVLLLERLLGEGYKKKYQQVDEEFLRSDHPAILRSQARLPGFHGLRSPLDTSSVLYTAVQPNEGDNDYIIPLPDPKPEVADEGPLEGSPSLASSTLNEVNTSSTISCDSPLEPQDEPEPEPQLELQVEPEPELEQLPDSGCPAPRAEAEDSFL
T8 sequence (Q02763 23-1124, species assumed): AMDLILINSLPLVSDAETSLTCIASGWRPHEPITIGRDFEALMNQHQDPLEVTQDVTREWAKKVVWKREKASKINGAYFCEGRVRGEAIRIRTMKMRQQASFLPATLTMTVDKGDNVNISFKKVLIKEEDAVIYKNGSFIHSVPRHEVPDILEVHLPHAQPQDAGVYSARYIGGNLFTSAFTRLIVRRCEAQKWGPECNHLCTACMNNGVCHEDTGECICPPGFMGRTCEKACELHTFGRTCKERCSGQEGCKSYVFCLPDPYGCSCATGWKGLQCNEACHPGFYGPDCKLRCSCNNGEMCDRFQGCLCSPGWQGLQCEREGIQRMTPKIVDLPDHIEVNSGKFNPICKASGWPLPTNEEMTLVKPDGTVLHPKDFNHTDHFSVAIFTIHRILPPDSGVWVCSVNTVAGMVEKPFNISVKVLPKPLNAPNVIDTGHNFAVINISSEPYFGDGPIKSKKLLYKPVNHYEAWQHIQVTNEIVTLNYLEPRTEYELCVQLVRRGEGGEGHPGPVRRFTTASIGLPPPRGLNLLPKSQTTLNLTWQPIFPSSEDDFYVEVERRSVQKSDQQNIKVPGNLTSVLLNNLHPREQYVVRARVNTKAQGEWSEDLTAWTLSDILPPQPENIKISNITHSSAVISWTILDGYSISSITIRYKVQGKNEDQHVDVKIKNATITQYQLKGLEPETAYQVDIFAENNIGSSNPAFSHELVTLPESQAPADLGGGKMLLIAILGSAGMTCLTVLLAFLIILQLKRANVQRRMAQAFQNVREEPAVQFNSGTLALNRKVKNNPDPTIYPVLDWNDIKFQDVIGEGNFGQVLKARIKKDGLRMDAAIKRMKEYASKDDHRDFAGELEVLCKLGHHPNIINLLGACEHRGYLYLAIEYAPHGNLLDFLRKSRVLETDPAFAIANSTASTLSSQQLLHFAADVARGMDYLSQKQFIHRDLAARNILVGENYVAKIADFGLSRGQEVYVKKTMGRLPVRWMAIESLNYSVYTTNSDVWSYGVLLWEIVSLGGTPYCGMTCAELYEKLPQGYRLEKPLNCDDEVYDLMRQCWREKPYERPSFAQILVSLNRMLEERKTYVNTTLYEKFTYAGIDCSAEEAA
T2 sequence (Q9Y243 whole entry, the tested form may be a part): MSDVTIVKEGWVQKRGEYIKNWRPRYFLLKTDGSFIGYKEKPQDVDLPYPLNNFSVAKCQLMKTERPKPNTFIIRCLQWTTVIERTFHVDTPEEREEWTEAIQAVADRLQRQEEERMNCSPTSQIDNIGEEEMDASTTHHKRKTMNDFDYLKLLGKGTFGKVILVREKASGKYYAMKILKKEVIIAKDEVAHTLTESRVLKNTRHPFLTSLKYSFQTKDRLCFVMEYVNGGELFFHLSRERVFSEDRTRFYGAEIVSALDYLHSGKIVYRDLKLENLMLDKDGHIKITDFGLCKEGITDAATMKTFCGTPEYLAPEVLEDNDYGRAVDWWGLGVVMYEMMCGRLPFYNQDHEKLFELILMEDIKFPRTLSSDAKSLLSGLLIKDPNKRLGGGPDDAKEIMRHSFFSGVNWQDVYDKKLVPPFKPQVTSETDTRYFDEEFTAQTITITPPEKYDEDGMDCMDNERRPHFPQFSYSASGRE
T11 sequence (P04626 23-1255, species assumed): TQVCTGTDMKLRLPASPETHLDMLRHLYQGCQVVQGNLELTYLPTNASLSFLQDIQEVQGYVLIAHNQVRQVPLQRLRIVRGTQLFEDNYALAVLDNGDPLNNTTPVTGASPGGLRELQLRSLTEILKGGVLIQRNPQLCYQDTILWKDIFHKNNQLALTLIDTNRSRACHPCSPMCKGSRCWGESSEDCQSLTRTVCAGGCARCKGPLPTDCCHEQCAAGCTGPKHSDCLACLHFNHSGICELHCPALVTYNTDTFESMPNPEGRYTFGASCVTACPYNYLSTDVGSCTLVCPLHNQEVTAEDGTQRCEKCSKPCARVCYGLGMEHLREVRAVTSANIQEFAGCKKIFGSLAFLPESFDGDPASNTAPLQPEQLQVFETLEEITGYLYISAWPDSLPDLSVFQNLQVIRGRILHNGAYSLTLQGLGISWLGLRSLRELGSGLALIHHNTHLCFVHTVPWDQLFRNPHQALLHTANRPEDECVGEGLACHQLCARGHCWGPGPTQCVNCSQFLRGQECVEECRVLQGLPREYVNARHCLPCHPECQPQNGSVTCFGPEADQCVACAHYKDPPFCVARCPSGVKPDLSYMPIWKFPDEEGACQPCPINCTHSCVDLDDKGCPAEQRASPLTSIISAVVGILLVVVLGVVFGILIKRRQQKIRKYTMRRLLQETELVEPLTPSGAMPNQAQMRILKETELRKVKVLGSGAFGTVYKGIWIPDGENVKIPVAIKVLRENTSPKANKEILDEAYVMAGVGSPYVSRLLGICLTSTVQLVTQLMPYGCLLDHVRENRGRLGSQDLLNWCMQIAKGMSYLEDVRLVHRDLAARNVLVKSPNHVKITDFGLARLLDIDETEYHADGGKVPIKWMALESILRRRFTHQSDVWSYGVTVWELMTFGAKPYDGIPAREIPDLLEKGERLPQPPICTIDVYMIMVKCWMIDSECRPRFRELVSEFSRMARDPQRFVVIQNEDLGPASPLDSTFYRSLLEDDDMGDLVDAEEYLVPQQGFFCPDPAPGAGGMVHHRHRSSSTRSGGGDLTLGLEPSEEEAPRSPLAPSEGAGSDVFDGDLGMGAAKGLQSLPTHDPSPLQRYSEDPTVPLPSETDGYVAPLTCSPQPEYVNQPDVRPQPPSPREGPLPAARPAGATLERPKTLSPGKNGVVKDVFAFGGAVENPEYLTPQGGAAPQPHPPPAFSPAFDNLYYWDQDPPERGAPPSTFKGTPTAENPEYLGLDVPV
T1 sequence (P06239 whole entry, species assumed, the tested form may be a part): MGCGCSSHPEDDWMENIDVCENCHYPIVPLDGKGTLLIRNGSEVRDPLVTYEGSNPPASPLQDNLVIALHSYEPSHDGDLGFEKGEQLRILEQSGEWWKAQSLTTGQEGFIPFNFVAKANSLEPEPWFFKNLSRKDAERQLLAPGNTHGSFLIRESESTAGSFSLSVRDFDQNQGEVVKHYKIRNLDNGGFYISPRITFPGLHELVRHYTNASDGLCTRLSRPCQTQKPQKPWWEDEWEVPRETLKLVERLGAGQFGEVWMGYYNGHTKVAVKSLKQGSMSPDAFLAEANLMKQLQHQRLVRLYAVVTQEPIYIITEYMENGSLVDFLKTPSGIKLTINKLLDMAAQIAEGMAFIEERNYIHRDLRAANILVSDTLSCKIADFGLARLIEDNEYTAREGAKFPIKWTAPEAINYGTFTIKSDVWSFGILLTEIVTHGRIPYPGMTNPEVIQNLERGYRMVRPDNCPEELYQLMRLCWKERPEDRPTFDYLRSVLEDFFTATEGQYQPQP

Row | SMILES | IC50 (Lck; Table 3) [µM] | IC50 (AKT) [µM] | IC50 (PDGFRB) [µM] | IC50 (IGFR-1 [1]) [µM] | IC50 (c-Met) [µM] | IC50 (Zap-70; Table 3) [µM] | IC50 (EGFR) [µM] | IC50 (Tek) [µM] | IC50 (Kdr; Table 3) [µM] | IC50 (Itk; Table 3) [µM] | IC50 (Lck) [µM] | IC50 (ErbB2) [µM] | IC50 (IGFR-1 [2]) [µM] | IC50 (Zap-70) [µM] | IC50 (Kdr) [µM] | IC50 (Itk) [µM]
1 | COc1ccc(Nc2ncnc(Nc3ccc(OC)c(OC)c3)n2)cc1OC [Compound 63] | > 11.7 | > 11.7 | 1.04 to 6.26 | > 11.7 | > 11.7 | > 11.7 | > 11.7 | > 11.7 | 1.04 to 6.26 | > 11.7 | – | – | – | – | – | –
2 | NC(=O)c1ccc(Nc2ncnc(-c3cccnc3NCc3cccs3)n2)cc1 [Compound 1083] | – | > 11.2 | 0.991 to 5.95 | – | > 11.2 | – | 0.991 to 5.95 | 0.991 to 5.95 | – | – | 0.991 to 5.95 | > 11.2 | > 11.2 | > 11.2 | < 0.991 | 8.67 to 11.2
3 | COc1ccc(Nc2ncnc(Nc3cc(-c4ccccc4)n[nH]3)n2)cc1OC [Compound 977] | – | > 11.6 | > 11.6 | – | < 1.03 | – | 1.03 to 6.16 | > 11.6 | – | – | < 1.03 | 1.03 to 6.16 | < 1.03 | > 11.6 | < 1.03 | > 11.6
4 | CCc1ccc(Nc2ncnc(-n3c(N)nc4ccccc43)n2)cc1 [Compound 657] | – | 7.24 to 10.6 | 7.24 to 10.6 | – | 7.24 to 10.6 | – | 1.21 to 7.24 | 1.21 to 7.24 | – | – | 7.24 to 10.6 | 1.21 to 7.24 | 1.21 to 7.24 | 1.21 to 7.24 | 1.21 to 7.24 | 7.24 to 10.6
5 | O=C(O)Cc1cccc(Nc2ncnc(Nc3cc(-c4ccco4)n[nH]3)n2)c1 [Compound 983] | – | 9.27 to 11.9 | 1.06 to 6.36 | – | < 1.06 | – | < 1.06 | 6.36 to 9.27 | – | – | 6.36 to 9.27 | > 11.9 | 1.06 to 6.36 | 6.36 to 9.27 | < 1.06 | 1.06 to 6.36

Now from value to molecule:

Row | IC50 (Lck; Table 3) [µM] | IC50 (AKT) [µM] | IC50 (PDGFRB) [µM] | IC50 (IGFR-1 [1]) [µM] | IC50 (c-Met) [µM] | IC50 (Zap-70; Table 3) [µM] | IC50 (EGFR) [µM] | IC50 (Tek) [µM] | IC50 (Kdr; Table 3) [µM] | IC50 (Itk; Table 3) [µM] | IC50 (Lck) [µM] | IC50 (ErbB2) [µM] | IC50 (IGFR-1 [2]) [µM] | IC50 (Zap-70) [µM] | IC50 (Kdr) [µM] | IC50 (Itk) [µM] | SMILES
6 | – | > 8.13 | < 0.723 | – | 4.34 to 6.32 | – | 0.723 to 4.34 | 0.723 to 4.34 | – | – | < 0.723 | < 0.723 | 0.723 to 4.34 | 0.723 to 4.34 | < 0.723 | 0.723 to 4.34 | COc1cc(Nc2ncnc(Nc3ccc(NS(=O)(=O)c4ccc([N+](=O)[O-])cc4)cc3)n2)cc(OC)c1OC [Compound 692]
7 | – | > 10.1 | > 10.1 | – | > 10.1 | – | > 10.1 | > 10.1 | – | – | 7.87 to 10.1 | > 10.1 | > 10.1 | > 10.1 | > 10.1 | 7.87 to 10.1 | CCN(CC)C(=O)C1CCCN(c2ncnc(Nc3cc(OC)c(OC)c(OC)c3)n2)C1 (stereo not drawn) [Compound 615]
8 | – | > 10.7 | > 10.7 | – | > 10.7 | – | > 10.7 | > 10.7 | – | – | 0.954 to 5.72 | > 10.7 | 0.954 to 5.72 | > 10.7 | > 10.7 | 0.954 to 5.72 | COc1cc(Nc2ncnc(-n3nc(-c4ccccc4)cc3N)n2)cc(OC)c1OC [Compound 520]

From patent publication US7074789B2, “Kinase inhibitors” (Amgen Inc., priority 1999, dated 2006)
